d = 2'-deoxy (DNA); r = 2'-OH (RNA)
Experiments:
[1] = system: canonical pathway in MM cell lines and tumors; details: cited from earlier work
[2] = system: patient EBV cells with heterozygous risk allele (1/2); assay: MTT proliferation assay of nucleofected cells treated with sFasL; assay type: cell-based, human; details: cells treated with sFasL 24 h post nucleofection; compared with control siRNA (CsiRNA) plus sFasL
Description: The effect of DcR3 on cell proliferation was measured by the colorimetric MTT assay using an MTT (Microtiter-tetrazolium, Sigma, USA) based assay. Briefly, the cells (5,000/ml) were incubated in triplicate in a 96-well plate (Costar, Cambridge, Mass., USA) in a final volume of 0.2 ml for the indicated times. Thereafter, 20 μl of MTT solution (5 g/L) was added to each well and then incubated for 12 h. After centrifugation, the supernatant was removed from each well. The colored formazan crystal produced from MTT was dissolved in 0.15 ml of DMSO and then the optical density (OD) value was measured on a microplate reader. Each experiment was performed in duplicate and repeated five times.
(§1) Post 24, 48 and 72 hours of nucleofection, cells were harvested and whole cell lysates were evaluated for DcR3 expression by immunoblot analysis. […] Nucleofection had no adverse effect on cell viability (data not shown). In addition, cells nucleofected with control and DcR3 siRNA post 24 h were treated with sFasL and analysed for cell death using MTT Proliferation assay.

DcR3 = assay: siRNA knockdown of DcR3 expression, immunoblot of whole cell lysates; assay type: cell-based, human; details: P (1/2) EBV cells, 100 nM siRNA, versus control siRNA; whole cell lysates 24, 48 and 72 hours post nucleofection
Description: The expression of DcR3 was reduced using siRNAs in the EBV transformed cell lines derived from control and IBD patients harboring risk variants in TNFRSF6B (A allele). Briefly, 3×10^6 cells were transfected with 100 nM DcR3 siRNA duplexes or with DcR3 non-silence control using Amaxa Nucleofector Kit and program T-20. The siRNA-transfected cells were incubated for 48 h after nucleofection and the degree of knockdown relative to introduction of control siRNA was confirmed by western blot using DcR3 mouse monoclonal antibody (Abgent) on whole cell lysates. The 21-mer siRNAs were synthesized by DHARMACON. The DcR3 siRNA sequences were as follows: sense sequence, 5′-GCC AGG CUC UUC CUC CCA UdTdT-3′ (SEQ ID NO: 1); antisense sequence, 5′-AUG GGA GGA AGA GCC UGG CdTdT-3′ (SEQ ID NO: 2). The non-silence control siRNA sequences were as follows: sense sequence, 5′-GCC CGC UUU CCC UCA GCA UdTdT-3′ (SEQ ID NO: 3); antisense sequence, 5′-AUG CUG AGG GAA AGC GGG C-3 (SEQ ID NO: 4).
as §1

CC(C)C[C@H](NC(=O)[C@H](Cc1ccccc1)NC(=O)c1cnccn1)B(O)O [Velcade bortezomib, bortezomib]
off-target effect on canonical NF-κB pathway [1]: induce up-regulation of the canonical pathway

DcR3 siRNA: 21-mer siRNA duplex, sense 5′-GCC AGG CUC UUC CUC CCA UdTdT-3′, antisense 5′-AUG GGA GGA AGA GCC UGG CdTdT-3′, synthesized by DHARMACON (sense GCCAGGCUCUUCCUCCCAUTT; antisense AUGGGAGGAAGAGCCUGGCTT; sugars from the 5' end r19 d2, backbone not given here)
cell growth (MTT) after sFasL treatment [2]: decrease in cell growth | DcR3 expression post nucleofection (DcR3): reduced DcR3 levels first seen at 24 h and maintained for at least 48 h
